PMC7118351 (BMB Reports, 2020)
Where a name gives a salt, the structure may show the parent alone. Read-outs that look alike come from different tables or passages of the source.

Columns and labels:
[1] = in vitro; conditions: human
[2] = tested on: Ebola trVLP replication; assay: microbe, parasite or virus in culture; assay type: cell-based, Ebola virus (EBOV)
[3] = tested on: EBOV GP; assay type: cell-based, Ebola virus (EBOV)
[4] = in vitro; conditions: human; remark: listed apart in the source
[5] = tested on: HEK293T cells; conditions: human
[6] = tested on: VP40; assay type: cell-based, Ebola virus (EBOV)
[7] = tested on: tetracistronic minigenome RNA incorporated into trVLPs; assay type: cell-based, Ebola virus (EBOV)
[8] = tested on: rhinovirus; assay type: cell-based
[9] = tested on: dengue virus; assay type: cell-based

NC(=O)c1nc(F)c[nH]c1=O [Hit T-705, 6-flouro-3-hydroxy-2-pyrazinecarboxamide]
CC50 [1]: > 90 µM | SI (selectivity index, ratio of CC50 to EC50) [2]: > 13.0 | EC50 ([2]; Zaire ebolavirus, HEK-293T): 4.7 ± 3.1 µM

CC(C)(N)C(=O)N[C@H](COCc1ccccc1)C(=O)N1CCC2(CC1)CN(S(C)(=O)=O)c1ccccc12 [Ibutamoren mesylate, ibutamoren mesylate]
reduction of the number of GP-positive spots [3]: 74.2% | CC50 [4]: 76.7 µM | CC50 [5]: > 30 µM | VP40 protein level (Western blot) [6]: downregulated in a dose-dependent manner | EC50 [2]: < 0.4 µM | S.I. (selectivity index) [2]: 222.8 | SI (selectivity index, ratio of CC50 to EC50) [2]: > 81.1 | EC50 ([2]; Zaire ebolavirus, HEK-293T): 0.2 µM | amount of negative-sense minigenome RNA incorporated into trVLPs [7]: suppression of the amount of negative-sense minigenome RNA incorporated into trVLPs in a dose-dependent manner

CNCCCC12CCC(c3ccccc31)c1ccccc12 [Maprotiline]
CC50 [1]: 25.1 ± 2.1 µM

CCCC(C(=O)OCCN(CC)CC)(c1ccccc1)c1ccccc1 [Proadifen]
CC50 [1]: > 30 µM | SI (selectivity index, ratio of CC50 to EC50) [2]: > 11.6 | EC50 ([2]; Zaire ebolavirus, HEK-293T): 2.7 ± 0.7 µM

OCCN1CCN(CCCN2c3ccccc3Sc3ccc(Cl)cc32)CC1 [Perphenazine]
CC50 [1]: 17.4 ± 0.6 µM | SI (selectivity index, ratio of CC50 to EC50) [2]: 27.7 ± 9.2 | EC50 ([2]; Zaire ebolavirus, HEK-293T): 0.7 ± 0.2 µM

CN1[C@@H]2CC[C@H]1C[C@@H](OC(c1ccccc1)c1ccccc1)C2 [Benztropine mesylate]
CC50 [1]: > 30 µM

CC(=O)c1ccc2c(c1)N(CCCN1CCC(CCO)CC1)c1ccccc1S2 [Piperacetazine]
CC50 [1]: 26.1 ± 5.5 µM | SI (selectivity index, ratio of CC50 to EC50) [2]: 15.7 ± 4.6 | EC50 ([2]; Zaire ebolavirus, HEK-293T): 2 ± 0.6 µM

CN(C)CCCN1c2ccccc2Sc2ccc(C(F)(F)F)cc21 [Triflupromazine]
CC50 [1]: > 30 µM | SI (selectivity index, ratio of CC50 to EC50) [2]: > 23.8 | EC50 ([2]; Zaire ebolavirus, HEK-293T): 1.4 ± 0.5 µM

O=C1NCCN1CCN1CCC(c2cn(-c3ccc(F)cc3)c3ccc(Cl)cc23)CC1 [Sertindole]
CC50 [1]: 23.1 µM | reduction of the number of GP-positive spots [3]: 84.7% | CC50 [4]: 13.7 µM | CC50 [5]: > 30 µM | viral inhibition in cells [8]: no viral inhibition | VP40 protein level (Western blot) [6]: downregulated in a dose-dependent manner | SI (selectivity index, ratio of CC50 to EC50) [2]: > 45.8 | viral inhibition in cells [9]: no viral inhibition | amount of negative-sense minigenome RNA incorporated into trVLPs [7]: suppression of the amount of negative-sense minigenome RNA incorporated into trVLPs in a dose-dependent manner

O=C(c1ccc(OCCN2CCCCC2)cc1)c1c(-c2ccc(O)cc2)sc2cc(O)ccc12 [Raloxifene, raloxifene hydrochloride]
CC50 [1]: 13.9 µM | reduction of the number of GP-positive spots [3]: 69.1% | CC50 [4]: 23.4 µM | CC50 [5]: 25.6 ± 0.2 µM | viral inhibition in cells [8]: no viral inhibition | VP40 protein level (Western blot) [6]: downregulated in a dose-dependent manner | SI (selectivity index, ratio of CC50 to EC50) [2]: 47.1 ± 2.2 | viral inhibition in cells [9]: no viral inhibition | amount of negative-sense minigenome RNA incorporated into trVLPs [7]: suppression of the amount of negative-sense minigenome RNA incorporated into trVLPs in a dose-dependent manner

CN1CCCN(C(c2ccccc2)c2ccc(Cl)cc2)CC1 (centres unmarked) [Homochlorcyclizine]
CC50 [1]: > 30 µM | SI (selectivity index, ratio of CC50 to EC50) [2]: > 37.1 | EC50 ([2]; Zaire ebolavirus, HEK-293T): 0.8 µM

NC(=O)c1ncn([C@@H]2O[C@H](CO)[C@@H](O)[C@H]2O)n1 [RBV, ribavirin]
reduction of the number of GP-positive spots [3]: 62.5% | CC50 [5]: > 90 µM | VP40 protein level (Western blot) [6]: downregulated in a dose-dependent manner | EC50 [2]: 4.1 ± 2.1 µM | SI (selectivity index, ratio of CC50 to EC50) [2]: > 16.3

CN(C)C(=O)C(CCN1CCC(O)(c2ccc(Cl)cc2)CC1)(c1ccccc1)c1ccccc1 [Loperamide]
CC50 [1]: > 30 µM

Cc1[nH]c(/C=C2\C(=O)Nc3ccc(S(=O)(=O)N(C)c4cccc(Cl)c4)cc32)c(C)c1C(=O)N1CCN(C)CC1 [SU11274]
CC50 [1]: > 30 µM | SI (selectivity index, ratio of CC50 to EC50) [2]: > 13.6 | EC50 ([2]; Zaire ebolavirus, HEK-293T): 2.6 ± 1.4 µM

CN1[C@@H]2CC[C@H]1C[C@@H](OC(c1ccccc1)c1ccc(Cl)cc1)C2 (some centres unmarked) [Hit 3-CPMT, 3a-[(4-chlorophenyl)phenylmethoxy]tropane]
CC50 [1]: > 30 µM | SI (selectivity index, ratio of CC50 to EC50) [2]: > 26.3 | EC50 ([2]; Zaire ebolavirus, HEK-293T): 1.3 ± 0.5 µM

CN1CCN(C(c2ccccc2)c2ccc(Cl)cc2)CC1 (centres unmarked) [Chlorcyclizine]
CC50 [1]: > 30 µM | SI (selectivity index, ratio of CC50 to EC50) [2]: > 17.0 | EC50 ([2]; Zaire ebolavirus, HEK-293T): 2.7 ± 2.2 µM
